Our source for the mass density values is the NIST ThermoML archive (doi:10.1021/je060441j).

Numbers after ± are expanded uncertainties.

The conditions of data set [1]: Liquid.
Data set [2] can be described thus: xn = mol fraction of the nth substance listed. As to conditions: 101 kPa, Liquid, x1 = 1.

As to `CO` [methanol], the mass density (in general, the mass of a sample divided by its volume) in data set [1] (288.15 K, 101 kPa) was 796.093 ± 0.23 kg/m3; in data set [1] (293.15 K, 101 kPa), 791.4 ± 0.23 kg/m3; in data set [1] (298.15 K, 101 kPa), 786.694 ± 0.23 kg/m3; in data set [1] (303.15 K, 101 kPa), 781.966 ± 0.24 kg/m3; in data set [1] (308.15 K, 101 kPa) it was 777.213 ± 0.24 kg/m3; in data set [1] (313.15 K, 101 kPa) it was 772.443 ± 0.24 kg/m3.

As for `c1ccccc1` [benzene], the mass density in data set [1] (298.15 K, 101.33 kPa) is given as 873.582 ± 0.16 kg/m3.

Turning to `ClC(Cl)Cl` [trichloromethane], the mass density in data set [1] (288.15 K, 101 kPa) came out at 1498.08 ± 0.47 kg/m3; in data set [1] (293.15 K, 101 kPa) it was 1488.64 ± 0.46 kg/m3; in data set [1] (298.15 K, 101 kPa) it was 1479.15 ± 0.45 kg/m3; in data set [1] (303.15 K, 101 kPa) it was 1469.61 ± 0.45 kg/m3; in data set [1] (308.15 K, 101 kPa) it was 1460.03 ± 0.44 kg/m3; in data set [1] (313.15 K, 101 kPa), 1450.41 ± 0.43 kg/m3.

Turning to `CO` [methanol] + ClC(Cl)Cl, the mass density is reported as 796.093 ± 0.23 kg/m3 in data set [2] (288.15 K); 791.4 ± 0.23 kg/m3 in data set [2] (293.15 K); 786.694 ± 0.23 kg/m3 in data set [2] (298.15 K); 781.966 ± 0.24 kg/m3 in data set [2] (303.15 K); 777.213 ± 0.24 kg/m3 in data set [2] (308.15 K); 772.443 ± 0.24 kg/m3 in data set [2] (313.15 K).
